Results: US10919896B2, “Preparation and uses of pyrimidinone derivatives” (Cancer Research Technology Limited, priority 2016, dated 2021)

Legend:
[1] = target: Cdc7/Dbf4 (Homo sapiens, UniProt O00311); experiment: Cdc7 Biochemical Assay Method 3: Cdc7/Dbf4 Enzyme TR-FRET Assay measuring pS40MCM2; conditions: 1 μM ATP, read-out: Biochemical Method 3 (pIC50) (converted)
Summary of the method: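 TR-FRET read-out (terbium anti-rabbit donor, streptavidin-Alexa Fluor488 acceptor, anti-Mcm2 pS40 antibody) of peptide phosphorylation after 120 min at 25° C; reaction held 1 μM ATP, 100 nM biotin-tagged peptide substrate and 2.5 nM enzyme complex.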

[2] = test system: Cdc7 (pS40MCM2 levels in HCT116 cells); experiment: Cdc7 Cell Pharmacodynamics Assay Method 2B: pS40MCM2 levels in HCT116 cells, 18 hours; format: cell-based; conditions: Homo sapiens, HCT-116, read-out: Biomarker Method 2B (pEC50) (converted)
Description: This protocol describes a method to investigate the inhibition of Cdc7 activity by measuring pS40MCM2 levels in cells, after treatment with compounds.
• HCT116 cells (ATCC, #CCL-247) • McCoys 5A with L-glutamine (Cellgro, #10-050-CV) • 10% FCS (Cellgro, #35-010-CV) • D-PBS without CaCl2 and MgCl2 (Cellgro, #21-031-CV) • Trypsin/EDTA (Cellgro, #25-052-CL) • BSA (Calbiochem, 126593) • Cell Extraction Buffer (Invitrogen FNN0011) • Protease inhibitor cocktail (Sigma P-2714) • PMSF 0.3M stock in DMSO (Sigma P7626) • Antibody-rabbit pMCM2 Ser40 (Abcam, AB133243) • Antibody-goat MCM2 (Bethyl #A300-122A) • Antibody-goat Anti Rabbit IgG HRP (Thermo, 31462) • SuperSignal ELISA Pico Chemiluminescent Substrate (Perbio Science UK Ltd 37069) • 10×PBS (Growcells, MRGF-6236) • Triton X100 (Sigma, P-T8787) • DMSO (Fisher, D128-1) • 2-Propanol (J. T. Baker, 9095-03) Method • Seed 1×10^6 HCT116 cells into each of two 175 cm^2 flask containing 30 mL Cell Growth Media and incubate at 37° C., 5% CO2 for 3 days. • Harvest the cells from one T175 cm^2 flask and count. • Dilute with Cell Growth Media to a cell density of 2×10^5. Dispense 100 μL to each well (20,000 HCT116 cells/well) of TC treated 96-well plate(s). • Allow cells to settle overnight in incubator set at 37° C. and 5% CO2. • Cell treatment: Transfer 0.25 μL/well from the compound plate to the wells of the cell plate(s). This is a 1:400 dilution of compound in the assay. • Once all cells are treated place the cells back to the incubator and incubate for either 6 hours (Method 2A) or 18 hours (Method 2B). • Dilute the capture antibody (total MCM2#A300-122A) 1 in 250 in the required volume of PBS (5 mL per assay plate, plus 5 mL for dead volume) and add 50 μL to each well of a Hybond plate except wells A12 & B12. Seal the plate and incubate at room temperature for a minimum of 2 hours. • Defrost aliquot of Invitrogen Cell Extraction Buffer (FNN0011) on ice and supplement with appropriate volume of both Sigma protease inhibitor cocktail (P-2714) and PMSF (final conc 1 mM from a 1 M stock in DMSO). • After the 6 hour or 18 hour cell treatment time, tap out the media from the assay plates and place them in the −70° C. freezer for at least 5 minutes. • Flick out the remaining liquid in the previously prepared capture Ab plate(s) and add 200 μL 2% BSA per well. Incubate for 1 hour at room temperature. • Remove plates from freezer and add 20 μL of ice cold complete lysis buffer. Incubate cells for 30 minutes at 4° C. • Add 30 μL per well 2% BSA • At the end of the 1 hour incubation, wash the Capture/ELISA plate(s) with Wash Buffer on the BioTek plate washer. • Transfer 40 μL per well of the lysis plate(s) to the same wells in the Capture/ELISA plate. Incubate cells overnight at 4° C. • At the end of the overnight incubation, wash the ELISA plate(s) with Wash Buffer on BioTek plate washer. • Prepare Detection Antibody Buffer and dispense 50 μL to all wells of ELISA plate(s) except wells G1 & H1. Cover plate and incubate at room temperature for 2 hours with gentle shaking. • At the end of the 2 hour incubation, wash the ELISA plate(s) with Wash Buffer on the BioTek plate washer. • Prepare the Conjugated Antibody Buffer and dispense 50 μL to all wells of ELISA plate(s). • Cover the plate and incubate at room temperature for 1 hour with gentle shaking. • At the end of the 1 hour incubation, wash the ELISA plate(s) with Wash Buffer on the BioTek plate washer. • Prepare Substrate Buffer and dispense 50 μL to all wells of ELISA plate(s). • Incubate for a minimum of 10 minutes and read plates on the EnVision 2100 Multilabel Reader (Mirror: Luminescence (404) & Luminescence 700 (212); Measurement Height: 6.5 mm; Measurement Time: 0.2 s). Method 3

[3] = test system: Cdc7 (pS53MCM2 levels in SW48 cells); experiment: Cdc7 Cell Pharmacodynamics Assay Method 3: pS53MCM2 levels in SW48 cells, 6 hours; format: cell-based; conditions: Homo sapiens, SW48, 6 h, read-out: Biomarker Method 3 (pEC50) (converted)
Description: This protocol describes a method to investigate the inhibition of Cdc7 activity by measuring pS53MCM2 levels in cells, after treatment with compounds.
• SW48 cells • RPMI 1640 (Sigma, R5886) • 10% FCS (Sera Laboratories International Ltd, EU000F Batch:108005) • 100× L-Glutamine (Invitrogen, 25030-024) • D-Glucose Solution (10%) (Sigma, G8644) • HEPES Buffer Solution (Sigma, 83264) • Sodium Pyruvate (Sigma, S8636) • PBS (Fisger, BP399-4) • Trypsin/EDTA (Invitrogen 25300-054) • 2% BSA in PBS • Cell Extraction Buffer (Invitrogen FNN0011) • Protease inhibitor cocktail (Sigma P-2714) • PMSF 0.3M stock in DMSO (Sigma P7626) • Antibody-rabbit pMCM2 Ser53 (Bethyl #A300-756A) • Antibody-goat MCM2 (Bethyl #A300-122A) • Antibody-goat Anti Rabbit IgG HRP (Perbio Science UK Ltd 31462) • SuperSignal ELISA Pico Chemiluminescent Substrate (Perbio Science UK Ltd 37070) Method • Plate 30,000 SW48 cells per well in standard TC treated 96 well plate in 100 μL complete RPMI 1640 medium. • Allow cells to settle overnight in incubator set at 37° C. and 5% CO2. • Cell treatment: prepare a 384 well plate containing 80 μl PBS/well. The PBS should be at room temperature—to be referred to as intermediate plate. Transfer 2 μL of compound from mother plate to intermediate (daughter plate) 1:40 dilution, then 5 μL intermediate to cell (daughter) plate. • Once all cells are treated place the cells back to the incubator and incubate for 6 hours. • Dilute the capture antibody (total MCM2#A300-122A) 1 in 250 in the required volume of PBS (5 mL per assay plate, plus 5 mL for dead volume) and add 50 μL to each well of a Hybond plate. Seal the plate and incubate at room temperature for a minimum of 2 hours. • Defrost aliquot of Invitrogen Cell Extraction Buffer (FNN0011) on ice and supplement with appropriate volume of both Sigma protease inhibitor cocktail (P-2714) and PMSF (final conc 1 mM from a 1 M stock in DMSO). • After the 6 hour cell treatment time, tap out the media from the assay plates and place them in the −80° C. freezer for at least 5 minutes. • Remove plates from freezer and add 20 μL of ice cold complete lysis buffer, with the multidrop. Incubate cells for 30 minutes at 4° C. • Add 80 μL per well 2% BSA. • Flick out the remaining liquid from the capture plate and transfer 80 μL from the lysis plate to the same wells in the capture/ELISA plate, using the Biomek. Cover with plate seal and incubate plates overnight at 4° C. • Wash plates with PBS, remove any residual remaining liquid and add 50 μL per well of pMCM2 Ser53 antibody (#A300-756A) diluted 1 in 100 in 2% BSA. Cover plate and incubate at room temperature for 2 hours with gentle shaking. • Wash plates with PBS, remove any residual remaining liquid and Incubate with 50 μL goat anti rabbit antibody (1 in 800 dilution in 2% BSA), for 1 hour at room temperature. • Wash plates with PBS, remove any residual remaining liquid and add 50 μL mixed SuperSignal Pico substrate. • Incubate each plate for 5 minutes at room temperature shielding the plates from direct light (with a cover plate). Read plates with the luminescent detection.

Chain of Cdc7/Dbf4 (O00311 whole entry): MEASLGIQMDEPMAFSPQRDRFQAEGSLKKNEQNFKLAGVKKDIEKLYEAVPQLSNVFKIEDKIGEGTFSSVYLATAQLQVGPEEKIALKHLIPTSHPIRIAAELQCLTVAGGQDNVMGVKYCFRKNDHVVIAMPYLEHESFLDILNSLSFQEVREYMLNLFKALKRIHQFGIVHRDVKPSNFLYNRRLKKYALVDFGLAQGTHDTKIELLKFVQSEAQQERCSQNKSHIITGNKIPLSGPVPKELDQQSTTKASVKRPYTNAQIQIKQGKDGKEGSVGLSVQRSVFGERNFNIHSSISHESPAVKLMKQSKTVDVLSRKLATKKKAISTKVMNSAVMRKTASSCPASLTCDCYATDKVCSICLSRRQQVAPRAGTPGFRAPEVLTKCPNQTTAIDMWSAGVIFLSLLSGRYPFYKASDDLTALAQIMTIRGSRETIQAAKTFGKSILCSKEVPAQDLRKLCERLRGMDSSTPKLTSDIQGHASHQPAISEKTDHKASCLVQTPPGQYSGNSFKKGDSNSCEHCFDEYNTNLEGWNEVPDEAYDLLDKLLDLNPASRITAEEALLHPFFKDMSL
Chain of Cdc7/Dbf4 (Q9UBU7 whole entry partner): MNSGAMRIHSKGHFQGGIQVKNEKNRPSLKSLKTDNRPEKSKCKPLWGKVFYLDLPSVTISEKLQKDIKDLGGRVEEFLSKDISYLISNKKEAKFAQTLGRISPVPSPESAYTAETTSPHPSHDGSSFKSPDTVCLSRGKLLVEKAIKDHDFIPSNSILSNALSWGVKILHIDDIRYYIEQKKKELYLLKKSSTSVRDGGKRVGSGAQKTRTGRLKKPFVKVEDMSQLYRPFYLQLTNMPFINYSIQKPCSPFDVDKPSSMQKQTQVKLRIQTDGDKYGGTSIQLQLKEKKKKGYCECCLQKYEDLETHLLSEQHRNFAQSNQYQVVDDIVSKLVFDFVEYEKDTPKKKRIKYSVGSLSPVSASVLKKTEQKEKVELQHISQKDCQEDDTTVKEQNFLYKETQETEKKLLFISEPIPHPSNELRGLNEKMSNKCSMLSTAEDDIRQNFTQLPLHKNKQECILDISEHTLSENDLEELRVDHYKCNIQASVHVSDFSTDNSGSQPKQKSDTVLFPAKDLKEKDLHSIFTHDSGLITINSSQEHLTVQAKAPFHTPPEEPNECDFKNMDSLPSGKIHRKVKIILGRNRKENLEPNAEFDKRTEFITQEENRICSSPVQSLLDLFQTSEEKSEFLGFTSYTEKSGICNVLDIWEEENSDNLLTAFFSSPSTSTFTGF

SMILES | IC50 [1] [nM] | EC50 [2] [nM] | EC50 [3] [nM]
O=c1[nH]c(-c2ccnc(F)c2)nc(N2CCCNCC2)c1Cl [Compound 206] | 0.0977 | 39.8 | 562
CC1(F)CNCCN(c2nc(-c3ccnc(F)c3)[nH]c(=O)c2Cl)C1 (centres unmarked) [Compound 304] | 1.38 | 214 | –
CC1(C)CN(c2nc(-c3ccnc(F)c3)[nH]c(=O)c2Cl)CCCO1 [Compound 301] | 10.5 | 1910 | –
C[C@@H]1CN(c2nc(-c3ccnc(F)c3)[nH]c(=O)c2Cl)CCO1 [Compound 337] | 1.12 | 372 | –
CC1CCN(c2nc(-c3ccnc(F)c3)[nH]c(=O)c2Cl)CCN1 (centres unmarked) [Compound 303] | 2.09 | 126 | –
CC1(C)CN(c2nc(-c3ccnc(F)c3)[nH]c(=O)c2Cl)CCO1 [Compound 300] | 3.02 | 115 | –
C[C@@H]1CCCN1c1nc(-c2ccnc(F)c2)[nH]c(=O)c1Cl [Compound 279] | 0.724 | 57.5 | 1320
O=c1[nH]c(-c2ccnc(F)c2)nc(N2CCCOCC2)c1Cl [Compound 338] | 0.708 | 178 | –
O=c1[nH]c(-c2ccnc(F)c2)nc(N2CCOCC(F)(F)C2)c1Cl [Compound 286] | 0.229 | 15.5 | 513
C[C@@H]1CCCCN1c1nc(-c2ccnc(F)c2)[nH]c(=O)c1Cl [Compound 281] | 1.05 | 457 | –
O=c1[nH]c(-c2ccnc(F)c2)nc(N2C3CCC2CNC3)c1Cl [Compound 262] | 0.851 | 19.5 | 347
CN[C@H]1CCN(c2nc(-c3ccnc(F)c3)[nH]c(=O)c2Cl)C1 [Compound 271] | 1.48 | 295 | –
N#CC[C@H]1CN(c2nc(-c3ccnc(F)c3)[nH]c(=O)c2Cl)CCN1 [Compound 306] | 1.29 | 174 | –
CC1CN(c2nc(-c3ccnc(F)c3)[nH]c(=O)c2Cl)C(C)CO1 (centres unmarked) [Compound 340] | 2.51 | 174 | –
O=c1[nH]c(-c2ccnc(F)c2)nc(N2CCN(CC(F)F)CC2)c1Cl [Compound 350] | 2.19 | 155 | –
CN(C)[C@H]1CCN(c2nc(-c3ccnc(F)c3)[nH]c(=O)c2Cl)C1 [Compound 272] | 5.5 | 501 | –

SMILES | IC50 [1] [nM] | EC50 [2] [nM] | EC50 [3] [nM]
CC1(C)CNCCN1c1nc(-c2ccnc(F)c2)[nH]c(=O)c1Cl [Compound 358] | 1.15 | 2.45 | 89.1
CC[C@@H]1COCCN1c1nc(-c2ccnc(F)c2)[nH]c(=O)c1Cl [Compound 335] | 1.1 | 457 | –
C[C@]1(N)CCN(c2nc(-c3ccnc(F)c3)[nH]c(=O)c2Cl)C1 [Compound 273] | 0.646 | 427 | –
O=c1[nH]c(-c2ccnc(F)c2)nc(N2CCC(N3CCOCC3)CC2)c1Cl [Compound 244] | 4.37 | 398 | –
CN1CCCN(c2nc(-c3ccnc(F)c3)[nH]c(=O)c2Cl)CC1 [Compound 298] | 4.07 | 331 | –
C[C@@H]1CNCCCN1c1nc(-c2ccnc(F)c2)[nH]c(=O)c1Cl [Compound 352] | 3.63 | 437 | –
O=c1[nH]c(-c2ccnc(F)c2)nc(N2CCN3CC(F)(F)C[C@H]3C2)c1Cl [Compound 347] | 3.63 | 316 | –
CC1(C)CN(c2nc(-c3ccnc(F)c3)[nH]c(=O)c2Cl)CCN1 [Compound 297] | 3.24 | 912 | –
CC1COCCCN1c1nc(-c2ccnc(F)c2)[nH]c(=O)c1Cl (centres unmarked) [Compound 355] | 2.69 | 288 | –
C[C@@H]1CN(c2nc(-c3ccnc(F)c3)[nH]c(=O)c2Cl)C[C@H](C)O1 [Compound 201] | 4.17 | 813 | –
CO[C@@H]1CCCN(c2nc(-c3ccnc(F)c3)[nH]c(=O)c2Cl)C1 [Compound 282] | 2.63 | 234 | –
CC1(C)COCCN1c1nc(-c2ccnc(F)c2)[nH]c(=O)c1Cl [Compound 339] | 0.479 | 10.7 | 110
O=c1[nH]c(-c2ccncc2)nc(N2CC(F)(F)OC(F)(F)C2)c1Cl [Compound 413, 5-chloro-2-(4-pyridyl)-4-(2,2,6,6-tetrafluoromorpholin-4-yl)-1H-pyrimidin-6-one] | 1.38 | 309 | –
O=c1[nH]c(-c2ccnc(F)c2)nc(N2CCCC3(CCNC3)C2)c1Cl (centres unmarked) [Compound 258] | 0.832 | 562 | –
O=c1[nH]c(-c2ccnc(F)c2)nc(N2CCCCC2)c1Cl [Compound 277] | 1.07 | 282 | –
